From ChEMBL document CHEMBL1159293, “Additional bioactive acetogenins, annomutacin and (2,4-trans and cis)-10R-annonacin-A-ones, from the leaves of Annona muricata” (J Nat Prod, 1995)
Values after ≈ are worked out from the molar mass of the structure shown.

Key:
MCF7 = test: Cytotoxicity against human MCF7 cells after 7 days by MTT assay; assay type: functional; conditions: MCF7, 168 h, read-out: ED50 (the source's name)
A549 = test: Cytotoxicity against human A549 cells after 7 days by MTT assay; assay type: functional; conditions: A549, 168 h, read-out: ED50 (the source's name)
HT-29 = test: Cytotoxicity against human HT-29 cells after 7 days by MTT assay; assay type: functional; conditions: HT-29, 168 h, read-out: ED50 (the source's name)
[1] = (§1) Toxicity to brine shrimp; assay type: organism-based; conditions: artemia, in vivo
Artemia = test: as §1; assay type: organism-based; conditions: in vivo

Structure (SMILES)	EC50 (MCF7)	EC50 (A549)	EC50 (HT-29)	LC50 [1]	LC50 (Artemia)
CCCCCCCCCCCC[C@H](O)[C@H]1CC[C@H]([C@H](O)CCCC[C@H](O)CCCCC[C@@H]2C[C@@H](CC(C)=O)C(=O)O2)O1	0.57 µg/mL (≈ 0.955 µM)	0.174 µg/mL (≈ 0.292 µM)	> 1 µg/mL	0.112 µg/mL (≈ 0.188 µM)	
CCCCCCCCCCCC[C@H](O)[C@H]1CC[C@H]([C@H](O)CCCC[C@H](O)CCCCC[C@@H]2C[C@H](CC(C)=O)C(=O)O2)O1	0.57 µg/mL (≈ 0.955 µM)	0.174 µg/mL (≈ 0.292 µM)	> 1 µg/mL	0.112 µg/mL (≈ 0.188 µM)	
CCCCCCCCCCCC[C@H](O)[C@@H]1CC[C@@H]([C@@H](O)CCCCCCC(O)CCCCC[C@@H](O)CC2=C[C@H](C)OC2=O)O1 (stereo partly drawn) [ANNOMONTACIN]	> 1 µg/mL	0.0157 µg/mL (≈ 0.0251 µM)	> 1 µg/mL		3.91 ×10⁻² ug/ml
COc1cccc2c1C(=O)c1c(O)c3c(c(O)c1C2=O)C[C@@](O)(C(=O)CO)C[C@@H]3O[C@H]1C[C@H](N)[C@H](O)[C@H](C)O1 [DOXORUBICIN]				0.313 µg/mL (≈ 0.576 µM)	
